Source: ChEMBL document CHEMBL1201862, “PubChem BioAssay data set” (2004)
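1) Cells in 96-well plates. 2) Compound, 48 h, 5 concentrations. 3) Linear interpolation between surrounding doses. 4) Unreached endpoint = highest concentration. Abbreviation: GI50, concentration required for 50% inhibition of growth.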 Calls of active or inactive are those of the source. Cut-off read from the data, not from the text of the source: active = GI50 up to about 1.1 µM and inactive = higher.

Tests used:
Assay in all cases: DTP human tumour cell line panel, 48 h
[1] = test system: OVCAR-4
[2] = test system: PC-3
[3] = test system: SR
[4] = test system: NCI-H226
[5] = test system: OVCAR-3
[6] = test system: HCT-116
[7] = test system: NCI/ADR-RES
[8] = test system: COLO 205
[9] = test system: SK-MEL-28
[10] = test system: NCI-H460
[11] = test system: OVCAR-5
[12] = test system: RXF 393
[13] = test system: SF-268
[14] = test system: HCC 2998
[15] = test system: 786-0
[16] = test system: SF-295
[17] = test system: MDA-MB-231
[18] = test system: A498
[19] = test system: Malme-3M
[20] = test system: K562
[21] = test system: MCF7
[22] = test system: HL-60
[23] = test system: SK-OV-3
[24] = test system: EKVX
[25] = test system: HOP-62
[26] = test system: SNB-19
[27] = test system: UACC-62
[28] = test system: SN12C
[29] = test system: UACC-257
[30] = test system: ACHN
[31] = test system: T47D
[32] = test system: SNB-75
[33] = test system: Hs-578T
[34] = test system: OVCAR-8
[35] = test system: NCI-H522
[36] = test system: MDA-MB-435
[37] = test system: U-251
[38] = test system: BT-549
[39] = test system: A549
[40] = test system: M14
[41] = test system: LOX IMVI
[42] = test system: MDA-N
[43] = test system: CCRF-CEM
[44] = test system: RPMI-8226
[45] = test system: NCI-H23
[46] = test system: IGROV-1
[47] = test system: SK-MEL-2
[48] = test system: KM12
[49] = test system: SF-539
[50] = test system: SK-MEL-5
[51] = test system: TK-10
[52] = test system: CAKI-1
[53] = test system: HT-29
[54] = test system: HOP-92
[55] = test system: UO-31
[56] = test system: HCT-15
[57] = test system: DU-145
[58] = test system: SW-620
[59] = test system: MOLT-4

Measured: GI50

CC(Oc1ccccc1Cl)C(=O)NN1C(=O)CSC1c1ccc(Cl)cc1 (centres undefined)
active: [3] < 0.01 µM | [43] 0.17 µM
inactive: [1] 13.7 µM | [2] 18.9 µM | [4] 18.2 µM | [5] 23.3 µM | [6] 14.5 µM | [7] 23.9 µM | [8] 19.6 µM | [9] 23 µM | [10] 25.4 µM | [11] 22.8 µM | [12] 17.3 µM | [13] 20.6 µM | [14] 18.4 µM | [15] 15.2 µM | [16] 18.5 µM | [17] 17.3 µM | [18] 19.8 µM | [19] 27 µM | [20] 6.73 µM | [21] 18.1 µM | [22] 7.64 µM | [23] 18.8 µM | [24] 26.8 µM | [25] 17.4 µM | [26] 21.7 µM | [27] 17.8 µM | [28] 14.8 µM | [29] 23.6 µM | [30] 27.2 µM | [31] 20.1 µM | [32] 22.9 µM | [33] 20.4 µM | [34] 23.4 µM | [35] 16 µM | [36] 16.4 µM | [37] 17.8 µM | [38] 21.3 µM | [39] 18.5 µM | [40] 18.4 µM | [41] 19.6 µM | [42] 15.2 µM | [44] 17.9 µM | [45] 19.3 µM | [46] 20.7 µM | [47] 21.9 µM | [48] 18.1 µM | [49] 24.8 µM | [50] 17.6 µM | [51] 25.8 µM | [52] 23.6 µM | [53] 19.8 µM | [54] 20 µM | [55] 35.1 µM | [57] 18.2 µM | [58] 23.4 µM
19.5 µM: [56]

Cc1cc(Cc2cc(Cc3cc(C)cc(C(C)(C)C)c3O)c(C)cc2C)c(O)c(C(C)(C)C)c1
17.4 µM: [56]
inactive: [1] 11 µM | [2] > 100 µM | [3] 29.2 µM | [4] 14.8 µM | [5] 16.4 µM | [6] 16.4 µM | [7] 17.9 µM | [8] 19.5 µM | [9] 18 µM | [11] 19.6 µM | [12] 12 µM | [13] 15.9 µM | [14] 13.5 µM | [15] 17.1 µM | [59] 16.9 µM | [16] 18.9 µM | [17] > 100 µM | [18] 16.1 µM | [19] 12.5 µM | [20] 15.7 µM | [21] 12.7 µM | [22] 20.9 µM | [23] 16.7 µM | [24] 16.6 µM | [25] 17.5 µM | [26] 17.2 µM | [27] 13.4 µM | [28] 16.6 µM | [29] 16.2 µM | [30] 16.1 µM | [31] 14 µM | [32] 11.2 µM | [33] 17.5 µM | [34] 24.9 µM | [35] 14.3 µM | [36] 13 µM | [37] > 100 µM | [38] 17.5 µM | [39] 15.4 µM | [40] 17.4 µM | [41] 20 µM | [42] 18.6 µM | [43] 16 µM | [44] 20 µM | [45] 17.4 µM | [46] 17.3 µM | [47] > 100 µM | [48] 16.6 µM | [50] 16.6 µM | [51] 24.1 µM | [52] 19.9 µM | [53] 18.6 µM | [54] 13.2 µM | [55] 18.1 µM | [57] 14.5 µM | [58] 17.9 µM

C[C@H]1[C@H](C)CC[C@]2(C(=O)OC3OC(CO)C(O)C(O)C3O)CC[C@]3(C)C(=CC[C@@H]4[C@@]5(C)C[C@@H](O)[C@@H]6OC(=O)c7cc(O)c(O)c(O)c7-c7c(cc(O)c(O)c7O)C(=O)OC[C@@]6(CO)[C@@H]5CC[C@]43C)[C@H]12 (some centres undefined)
76.7 µM: [56]
inactive: [1] 23.9 µM | [2] > 88.3 µM | [3] 38.1 µM | [4] > 100 µM | [5] > 46.1 µM | [6] 46.7 µM | [7] > 100 µM | [8] > 100 µM | [9] > 100 µM | [10] 98.6 µM | [11] > 75.3 µM | [12] > 100 µM | [13] > 100 µM | [14] > 100 µM | [15] 23.2 µM | [59] 39.5 µM | [16] > 100 µM | [17] 19.5 µM | [18] > 100 µM | [19] > 95.5 µM | [20] 32.7 µM | [21] 18.6 µM | [22] 39.2 µM | [23] 98.6 µM | [24] > 100 µM | [25] > 100 µM | [26] > 100 µM | [27] > 87.7 µM | [28] 59.7 µM | [29] > 100 µM | [30] > 100 µM | [31] > 100 µM | [32] > 100 µM | [33] > 100 µM | [34] 57.1 µM | [35] > 59.3 µM | [36] 19.6 µM | [37] 60.4 µM | [38] > 100 µM | [39] > 100 µM | [40] > 100 µM | [41] 17.8 µM | [42] 21.5 µM | [43] 43.5 µM | [44] 98.2 µM | [45] > 100 µM | [46] > 100 µM | [47] > 100 µM | [48] 58.6 µM | [49] > 100 µM | [50] > 84.9 µM | [51] > 100 µM | [52] 47.8 µM | [53] 25.4 µM | [54] > 92.5 µM | [55] 43.1 µM | [57] > 100 µM | [58] 28.6 µM
